The results in this text go back to publication PMC11277421, “Advancing Cardiovascular Drug Screening Using Human Pluripotent Stem Cell-Derived Cardiomyocytes” (International Journal of Molecular Sciences, 2024).

The test system of one data set is hPSCs. As to the kind of experiment: Optimization of CHIR99021 concentration for hPSC-CM generation (morphology, cTnT FACS). It is filed as cell-based, human. The note with it: tested 0, 6, 9, 12 μM; morphology and cTnT expression on D10. From the text: To optimize the culture conditions for CM generation from hPSCs (iPSCs and ESCs), cells were propagated on Matrigel-coated culture plates with maintenance medium, as described in the Section 4. Subsequently, hPSCs underwent differentiation for 10 days, followed by maturation for another 10 days or longer if needed (Figure 1a). For the initial induction of mesodermal differentiation, CHIR99021, a GSK3 inhibitor and Wnt activator, was used. On the first day of hPSC cm generation, hPSCs were treated with CHIR99021 at various concentrations (0, 6, 9, and 12 μM) (Figure 1b). The optimal concentration of CHIR99021 for the efficient generation of hPSC-CMs was determined to be 9 μM based on their morphology and cTnT expression (Figure 1b). For further differentiation into cardiac progenitor cells, Wnt-C59, a small molecule that inhibits Wnt palmitoylation, was added to the differentiation medium from D2 to D4. For late differentiation into contracting CMs from D6 to D10, insulin was added. Contracting CMs were observed between D9 and D11 (Supplementary Figure S1). During differentiation over 10 days, there were changes in the expression levels of CM-related genes (Figure 1c). […] Moreover, GATA4, NKX2.5, TBX5, and ISL1, transcription factors that play key roles in cardiac development, were highly expressed on D10 compared with D0 or D5, indicating the induction of cardiac lineage cells. […]

For data set [1], the system named is iPSC-CMs. As to the kind of experiment: Cardiotoxicity test: spontaneous calcium oscillations (FLIPR, EarlyTox dye). The note with it: for EC50: Homo sapiens, iPSC-CM, read-out: EC50 (beating rate, calcium oscillations); for effect on beating rate: iPSC-CMs, concentration-dependent. Here is the method: Spontaneous calcium oscillations in iPSC-CMs were measured using the FLIPR system in the absence or presence of test compounds. […] This approach allowed the evaluation of proarrhythmic effects of drug candidates based on calcium dynamics occurring within the iPSC-CMs.
Figure 4 Utilization of hPSC-CMs as a platform for high-throughput testing of the cardiotoxicity and effectiveness of drugs. Spontaneous calcium oscillations in iPSC-CMs were measured using the FLIPR system in the absence or presence of test compounds. (a,b) Cardiotoxicity test. […] (b) Testing of the compounds known for their adverse effects in humans. […] (c,d) Efficacy test. (c) iPSC-CMs (c1) and ESC-CMs (c2) were treated with 200 nM ATX-II, a late inward sodium current inducer, which produces atrial arrhythmias mimicking the LQT3 phenotype, followed by exposure to a test compound. […] Error bars, mean ± SEM (N = 3). Asterisks, *—statistically significant differences (Student’s t-test; p < 0.05).
Spontaneous calcium transients in contracting CMs were monitored using the FLIPR Tetra® High Throughput Cellular Screening System (Molecular Devices). hPSC-CMs were plated on the Matrigel-coated wells (8 × 10^4 cells per well) of a 96-well plate. Confluency was monitored after 2 days, and the strong synchronous contractions of cells were confirmed prior to the cardiac calcium oscillation assay. Experiments were conducted after 7–10 days of cell culture. The EarlyTox^TM Cardiotoxicity Kit (Molecular Devices) was used; a calcium-sensitive fluorescent dye was added to the plate according to the manufacturer’s instructions and incubated for 2 h at 37 °C. […] Calcium oscillations were measured at 20, 40, and 60 min after treatment. The acquired data were analyzed for beat frequency and peak width at 10% amplitude using ScreenWorks Peak Pro software version 2.0 (Molecular Devices).

For data set [2], the system named is iPSC-CMs. In words: Efficacy test: ATX-II-induced LQT3 phenotype, calcium oscillations in iPSC-CMs. It is filed as cell-based, human. Conditions: for average peak width after ATX-II, reversal by test compound: iPSC-CMs pretreated with 200 nM ATX-II. The source says: (§1) (a,b) Cardiotoxicity test. […] (c,d) Efficacy test. […] Error bars, mean ± SEM (N = 3).
(§2) For the efficacy test (Figure 4c), iPSC-CMs and ESC-CMs were generated as previously mentioned and used to screen effective compounds for reversing arrhythmia phenotype.

The test system of a further data set is ESC-CMs. In words: Efficacy test: ATX-II-induced LQT3 phenotype, calcium oscillations in ESC-CMs. It is filed as cell-based, human. The note with it: for average peak width after ATX-II, reversal by test compound: ESC-CMs pretreated with 200 nM ATX-II.
Source text: as §1, §2

“Also recorded” adds a separate entry of the source.

With `Cc1c[nH]c(-c2cnc(NCCNc3ccc(C#N)cn3)nc2-c2ccc(Cl)cc2Cl)n1` [CHIR99021], the “optimal concentration for efficient generation of hPSC-CMs” value in the data set on hPSCs is 9 µM.
In general, EC50 refers to the concentration that produces a half-maximal response. Take `COc1ccc([C@@H]2Sc3ccccc3N(CCN(C)C)C(=O)[C@@H]2OC(C)=O)cc1` [diltiazem]: in the data set on iPSC-CMs [1], the concentration giving a half-maximal response (EC50) was determined as 5.97 µM and the “effect on beating rate” value is “increased the beating rate”.
In the same order, the values of `CN(CCOc1ccc(NS(C)(=O)=O)cc1)CCc1ccc(NS(C)(=O)=O)cc1` [dofetilide] are 0.018 µM and “decrease in the beating rate”.
For `O=C(NCC1CCCCN1)c1cc(OCC(F)(F)F)ccc1OCC(F)(F)F` (centres unmarked) [flecainide], in the data set with iPSC-CMs [1], the EC50 came out at 17.5 µM and the “effect on beating rate” value was “inhibited the beating rates”.
With `CC(C)c1nc(CN(C)C(=O)N[C@H](C(=O)N[C@@H](Cc2ccccc2)C[C@H](O)[C@H](Cc2ccccc2)NC(=O)OCc2cncs2)C(C)C)cs1` [ritonavir], in the data set on iPSC-CMs [1], the EC50 was determined as 6.09 µM and the “effect on beating rate” value is “inhibited the beating rates”.
With `CCCN1CCCC[C@H]1C(=O)Nc1c(C)cccc1C` [ropivacaine], the “average peak width after ATX-II, reversal by test compound” value in the data set on iPSC-CMs [2] and with ESC-CMs was “restored to the level of untreated control cells; also recorded: significantly reverted the average peak width to the level of untreated control cells” each time.
Consider `CCCN(CCc1cccs1)[C@H]1CCc2c(O)cccc2C1` [rotigotine], for which the “average peak width after ATX-II, reversal by test compound” value with iPSC-CMs [2] and in the data set on ESC-CMs was “restored to the level of untreated control cells; also recorded: significantly reverted the average peak width to the level of untreated control cells” in each case.
With `COc1ccc(CCN(C)CCCC(C#N)(c2ccc(OC)c(OC)c2)C(C)C)cc1OC` (centres unmarked) [verapamil], in the data set with iPSC-CMs [1], the EC50 was found to be 0.522 µM and the “effect on beating rate” value is given as “increased the beating rate”.
As to “ATX-II: late inward sodium current inducer known to produce atrial arrhythmias, mimicking LQT3”, the “average peak width (effect of ATX-II itself)” value in the data set on iPSC-CMs [2] (200 nM, iPSC-CMs) is “higher average peak widths”; in the data set with ESC-CMs (200 nM, ESC-CMs) it was “higher average peak widths”.
